Active and inactive are the calls of the source. No cut-off for these calls is given here.
Experiments:
BXPC-3 [1] = assay: Cell cycle arrest in human BXPC-3 cells assessed as accumulation at G0/G1 phase measured after 48 hrs by AnnexinV-FITC/propidium iodide staining based flow cytometry; format: functional; settings: dose 4-16 µM
Panc02 [2] = assay: Antitumor activity against mouse Panc02 allografted in BALB/c mouse assessed as reduction in tumor weight at 50 mg/kg, ip administered every day for 20 days relative to control; format: functional; settings: 480 h, time 20 day, read-out: TGI
BXPC-3 [3] = assay: Cell cycle arrest in human BXPC-3 cells assessed as acumulation at G0/G1 phase by measuring downregulation of CDK4 at 4 to 16 uM measured after 48 hrs by Western blot analysis; format: functional, cell-based; settings: dose 4-16 µM
BXPC-3 [4] = assay: Cell cycle arrest in human BXPC-3 cells assessed as acumulation at G0/G1 phase by measuring downregulation of CyclinD1 at 4 to 16 uM measured after 48 hrs by Western blot analysis; format: functional, cell-based; settings: dose 4-16 µM
BXPC-3 [5] = assay: Cell cycle arrest in human BXPC-3 cells assessed as acumulation at G0/G1 phase by measuring upregulation of p27 at 4 to 16 uM measured after 48 hrs by Western blot analysis; format: functional, cell-based; settings: dose 4-16 µM
BXPC-3 [6] = assay: Cell cycle arrest in human BXPC-3 cells assessed as accumulation at G1/S phase by measuring upregulation of p57 measured after 48 hrs by Western blot analysis; format: functional, cell-based; settings: dose 4-16 µM
PANC-1 = assay: Antiproliferative activity against human PANC-1 cells assessed as cell growth inhibition at 2 uM measured after 48 to 72 hrs by MTT assay relative to control; format: functional; settings: time 48-72 hrs, read-out: GI
BXPC-3 [7] = assay: Cell cycle arrest in human BXPC-3 cells assessed as acumulation at G0/G1 phase by measuring downregulation of CyclinE1 at 4 to 16 uM measured after 48 hrs by Western blot analysis; format: functional, cell-based; settings: dose 4-16 µM
BXPC-3 [8] = assay: Induction of apoptosis in human BXPC-3 cells assessed as downregulation of Bcl-xl at 4 to 16 uM measured after 48 hrs by Western blot analysis; format: functional, cell-based; settings: dose 4-16 µM
Panc02 [9] = assay: Antitumor activity against mouse Panc02 allografted in BALB/c mouse assessed as reduction in tumor weight at 50 mg/kg, ip administered every day for 20 days in combination with gemcitabine at 100 mg/kg relative to control; format: functional; settings: 480 h, time 20 day, read-out: TGI
BXPC-3 [10] = assay: Induction of apoptosis in human BXPC-3 cells assessed as late apoptotic cells at 4 uM measured after 48 hrs by AnnexinV/propidium iodide staining based flow cytometry (reference value: 5.15 %); format: functional
Mus musculus = assay: Decrease in c-Myc expression in BALB/c mouse allografted with mouse Panc02 cells […] at 50 mg/kg, ip administered every day in combination with gemcitabine at 100 mg/kg measured after 20 days by immunohistochemical analysis; format: functional, organism-based; settings: time 20.0 day
Panc02 [11] = assay: Induction of apoptosis in mouse Panc02 cells allografted in BALB/c mouse assessed as condensed chromatin at 50 mg/kg, ip administered every day measured after 20 days by hematoxylin and eosin staining based assay; format: functional, organism-based; settings: time 20.0 day

SMILES: CCS(=O)(=O)Nc1ccc(Oc2ccccc2F)c(-c2cn(C)c(=O)c3cncn23)c1
- Activity (BXPC-3 [1]): Dose-dependent effect
- inhibition in vivo at 50 mg/kg (Panc02 [2]): 79%
- Activity (BXPC-3 [3]): Active
- Activity (BXPC-3 [4]): Active
- Activity (BXPC-3 [5]): Active
- Activity (BXPC-3 [6]): Active
- inhibition of growth at 2 µM (PANC-1): 16.5%
- Activity (BXPC-3 [7]): Active
- Activity (BXPC-3 [8]): Active
- inhibition in vivo at 50 mg/kg (Panc02 [9]): 85%
- Activity (BXPC-3 [10]): 8.59%
- Activity (Mus musculus): Active
- Activity (Panc02 [11]): Active
